# Assay results from patent US20100267561A1, “HERBICIDAL PYRIDAZINONE DERIVATIVES” (priority 2007, published 2010).
# How the values were obtained:
# Experiment in all cases: Test B pre-/postemergence plant response
# Format in all cases: in vivo
# [1] = tested on: Italian ryegrass (Lolium multiflorum); settings: for Ryegrass, Italian plant response rating: 8 g ai/ha
# Summary of the method: (§1)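 Preemergence and postemergence (plants 2-18 cm, 1- to 4-leaf stage) applications used test chemicals in a non-phytotoxic solvent with surfactant. Plants were held in a greenhouse 13 to 15 days, then rated visually against controls on a 0-100 scale (0 no effect, 100 complete control).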
# [2] = tested on: blackgrass (Alopecurus myosuroides); settings: for Blackgrass plant response rating: 8 g ai/ha
# Summary of the method: as §1
# [3] = tested on: catchweed bedstraw (Galium aparine); settings: Preemergence; for Galium plant response rating: 8 g ai/ha
# Summary of the method: as §1
# [4] = tested on: downy bromegrass (Bromus tectorum); settings: for Bromegrass, Downy plant response rating: 8 g ai/ha
# Summary of the method: as §1
# [5] = tested on: eastern black (E.B.) nightshade (Solanum ptycanthum); settings: Preemergence; for Nightshade, E. B. plant response rating: 8 g ai/ha
# Summary of the method: as §1
# [6] = tested on: giant foxtail (Setaria faberii); settings: for Foxtail, Giant plant response rating: 8 g ai/ha
# Summary of the method: as §1
# [7] = tested on: green foxtail (Setaria viridis); settings: for Foxtail, Green plant response rating: 8 g ai/ha
# Summary of the method: as §1
# [8] = tested on: johnsongrass (Sorghum halepense); settings: for Johnsongrass plant response rating: 8 g ai/ha
# Summary of the method: as §1
# [9] = tested on: morningglory (Ipomoea coccinea); settings: for Morningglory plant response rating: 8 g ai/ha
# Summary of the method: as §1
# [10] = tested on: pigweed (Amaranthus retroflexus); settings: for Pigweed plant response rating: 8 g ai/ha
# Summary of the method: as §1
# [11] = tested on: velvetleaf (Abutilon theophrasti); settings: for Velvetleaf plant response rating: 8 g ai/ha
# Summary of the method: as §1
# wild oat (Avena fatua) = settings: for Oat, Wild plant response rating: 8 g ai/ha
# Summary of the method: as §1
# [12] = tested on: woolly cupgrass (Eriochloa villosa); settings: for Cupgrass, Woolly plant response rating: 8 g ai/ha
# Summary of the method: as §1
# [13] = tested on: yellow nutsedge (Cyperus esculentus); settings: for Nutsedge, Yellow plant response rating: 8 g ai/ha
# Summary of the method: as §1
# [14] = Postemergence, 16 g ai/ha, scale 0 to 100
# [15] = Postemergence, 31 g ai/ha, scale 0 to 100, 0 no effect, 100 complete control
# [16] = Postemergence, 62 g ai/ha, scale 0 to 100, 0 no effect, 100 complete control
# [17] = Preemergence, 16 g ai/ha, scale 0 to 100 (0 no effect, 100 complete control)
# [18] = Preemergence, 31 g ai/ha, 0 to 100 scale, 0 no effect, 100 complete control
# [19] = Preemergence, 62 g ai/ha, scale 0 to 100
# [20] = 16 g ai/ha, scale 0 to 100 (0 no effect, 100 complete control)
# [21] = 31 g ai/ha, 0 to 100 scale, 0 no effect, 100 complete control
# [22] = Preemergence, 31 g ai/ha, scale 0 to 100 (0 no effect, 100 complete control)
smiles,measurement,setting,value
Cc1cc(-c2ccc(Cl)cc2)nn1-c1c(OC(=O)CC(C)C)cnn(C)c1=O [Compound 37],"Ryegrass, Italian plant response rating","[1]; postemergence, 0-100 scale",60
same,"Plant response rating, Ryegrass, Italian",[1]; [14],90
same,"Plant response rating, Ryegrass, Italian",[1]; [15],98
same,"Plant response rating, Ryegrass, Italian",[1]; [16],100
same,"Plant response rating, Ryegrass, Italian",[1]; [17],90
same,"Plant response rating, Ryegrass, Italian",[1]; [18],98
same,"Plant response rating, Ryegrass, Italian",[1]; [19],100
same,"Ryegrass, Italian plant response rating","[1]; Preemergence, scale 0 to 100",45
same,Blackgrass plant response rating,"[2]; postemergence, 0-100 scale",10
same,"Plant response rating, Blackgrass",[2]; [14],75
same,"Plant response rating, Blackgrass",[2]; [15],90
same,"Plant response rating, Blackgrass",[2]; [16],90
same,"Plant response rating, Blackgrass",[2]; [17],100
same,"Plant response rating, Blackgrass",[2]; [18],100
same,"Plant response rating, Blackgrass",[2]; [19],100
same,Blackgrass plant response rating,"[2]; Preemergence, scale 0 to 100",95
same,"Plant response rating, Galium",[3]; [20],0
same,"Plant response rating, Galium",[3]; [21],0
same,"Plant response rating, Galium","[3]; 62 g ai/ha, scale 0 to 100",0
same,Galium plant response rating,[3]; scale 0 to 100,0
same,"Bromegrass, Downy plant response rating","[4]; postemergence, 0-100 scale",0
same,"Plant response rating, Bromegrass, Downy",[4]; [14],55
same,"Plant response rating, Bromegrass, Downy",[4]; [15],55
same,"Plant response rating, Bromegrass, Downy",[4]; [16],75
same,"Plant response rating, Bromegrass, Downy",[4]; [17],30
same,"Plant response rating, Bromegrass, Downy",[4]; [18],60
same,"Plant response rating, Bromegrass, Downy",[4]; [19],80
same,"Bromegrass, Downy plant response rating","[4]; Preemergence, scale 0 to 100",0
same,"Plant response rating, Nightshade, E. B.",[5]; [20],0
same,"Plant response rating, Nightshade, E. B.",[5]; [21],0
same,"Plant response rating, Nightshade, E. B.","[5]; 62 g ai/ha, scale 0 to 100",0
same,"Nightshade, E. B. plant response rating",[5]; scale 0 to 100,0
same,"Foxtail, Giant plant response rating","[6]; postemergence, 0-100 scale",30
same,"Plant response rating, Foxtail, Giant",[6]; [14],70
same,"Plant response rating, Foxtail, Giant",[6]; [15],85
same,"Plant response rating, Foxtail, Giant",[6]; [16],100
same,"Plant response rating, Foxtail, Giant",[6]; [17],100
same,"Plant response rating, Foxtail, Giant",[6]; [18],100
same,"Plant response rating, Foxtail, Giant",[6]; [19],100
same,"Foxtail, Giant plant response rating","[6]; Preemergence, scale 0 to 100",100
same,"Foxtail, Green plant response rating","[7]; postemergence, 0-100 scale",60
same,"Plant response rating, Foxtail, Green",[7]; [14],75
same,"Plant response rating, Foxtail, Green",[7]; [15],80
same,"Plant response rating, Foxtail, Green",[7]; [16],85
same,"Plant response rating, Foxtail, Green",[7]; [17],98
same,"Plant response rating, Foxtail, Green",[7]; [18],100
same,"Plant response rating, Foxtail, Green",[7]; [19],100
same,"Foxtail, Green plant response rating","[7]; Preemergence, scale 0 to 100",40
same,Johnsongrass plant response rating,"[8]; postemergence, 0-100 scale",0
same,"Plant response rating, Johnsongrass",[8]; [14],55
same,"Plant response rating, Johnsongrass",[8]; [15],95
same,"Plant response rating, Johnsongrass",[8]; [16],100
same,"Plant response rating, Johnsongrass",[8]; [17],50
same,"Plant response rating, Johnsongrass",[8]; [18],80
same,"Plant response rating, Johnsongrass",[8]; [19],80
same,Johnsongrass plant response rating,"[8]; Preemergence, scale 0 to 100",50
same,Morningglory plant response rating,"[9]; postemergence, 0-100 scale",0
same,"Plant response rating, Morningglory",[9]; [14],0
same,"Plant response rating, Morningglory",[9]; [15],0
same,"Plant response rating, Morningglory",[9]; [16],0
same,"Plant response rating, Morningglory",[9]; [17],0
same,"Plant response rating, Morningglory",[9]; [18],0
same,"Plant response rating, Morningglory",[9]; [19],0
same,Morningglory plant response rating,"[9]; Preemergence, scale 0 to 100",0
same,Pigweed plant response rating,"[10]; postemergence, 0-100 scale",0
same,"Plant response rating, Pigweed",[10]; [14],0
same,"Plant response rating, Pigweed",[10]; [15],0
same,"Plant response rating, Pigweed",[10]; [16],0
same,"Plant response rating, Pigweed",[10]; [17],0
same,"Plant response rating, Pigweed",[10]; [18],0
same,"Plant response rating, Pigweed",[10]; [19],0
same,Pigweed plant response rating,"[10]; Preemergence, scale 0 to 100",0
same,Velvetleaf plant response rating,"[11]; postemergence, 0-100 scale",0
same,"Plant response rating, Velvetleaf",[11]; [14],0
same,"Plant response rating, Velvetleaf",[11]; [16],0
same,"Plant response rating, Velvetleaf",[11]; [17],0
same,"Plant response rating, Velvetleaf",[11]; [18],0
same,"Plant response rating, Velvetleaf",[11]; [19],0
same,Velvetleaf plant response rating,"[11]; Preemergence, scale 0 to 100",0
same,"Oat, Wild plant response rating","wild oat (Avena fatua); postemergence, 0-100 scale",85
same,"Plant response rating, Oat, Wild",wild oat (Avena fatua); [14],95
same,"Plant response rating, Oat, Wild",wild oat (Avena fatua); [15],95
same,"Plant response rating, Oat, Wild",wild oat (Avena fatua); [16],98
same,"Plant response rating, Oat, Wild",wild oat (Avena fatua); [17],65
same,"Plant response rating, Oat, Wild",wild oat (Avena fatua); [18],80
same,"Plant response rating, Oat, Wild",wild oat (Avena fatua); [19],95
same,"Oat, Wild plant response rating","wild oat (Avena fatua); Preemergence, scale 0 to 100",0
same,"Cupgrass, Woolly plant response rating","[12]; postemergence, 0-100 scale",90
same,"Plant response rating, Cupgrass, Woolly",[12]; [14],98
same,"Plant response rating, Cupgrass, Woolly",[12]; [15],100
same,"Plant response rating, Cupgrass, Woolly",[12]; [16],100
same,"Plant response rating, Cupgrass, Woolly",[12]; [17],50
same,"Plant response rating, Cupgrass, Woolly",[12]; [18],50
same,"Plant response rating, Cupgrass, Woolly",[12]; [19],100
same,"Cupgrass, Woolly plant response rating","[12]; Preemergence, scale 0 to 100",50
same,"Nutsedge, Yellow plant response rating","[13]; postemergence, 0-100 scale",0
same,"Plant response rating, Nutsedge, Yellow",[13]; [14],0
same,"Plant response rating, Nutsedge, Yellow",[13]; [15],0
same,"Plant response rating, Nutsedge, Yellow",[13]; [16],0
same,"Plant response rating, Nutsedge, Yellow",[13]; [17],0
same,"Plant response rating, Nutsedge, Yellow",[13]; [18],0
same,"Plant response rating, Nutsedge, Yellow",[13]; [19],0
same,"Nutsedge, Yellow plant response rating","[13]; Preemergence, scale 0 to 100",0
Cc1cc(-c2ccc(Cl)cc2)nn1-c1c(OS(=O)(=O)c2cccc3ccccc23)cnn(C)c1=O [Compound 47],"Plant response rating, Ryegrass, Italian",[1]; [17],80
same,"Plant response rating, Ryegrass, Italian",[1]; [22],90
same,"Plant response rating, Ryegrass, Italian",[1]; [19],98
same,"Ryegrass, Italian plant response rating","[1]; Preemergence, scale 0 to 100",0
same,"Plant response rating, Blackgrass",[2]; [17],70
same,"Plant response rating, Blackgrass",[2]; [18],100
same,"Plant response rating, Blackgrass",[2]; [19],100
same,Blackgrass plant response rating,"[2]; Preemergence, scale 0 to 100",70
same,"Plant response rating, Galium",[3]; [20],0
same,"Plant response rating, Galium",[3]; [21],0
same,Galium plant response rating,[3]; scale 0 to 100,0
same,"Plant response rating, Bromegrass, Downy",[4]; [17],0
same,"Plant response rating, Bromegrass, Downy",[4]; [18],0
same,"Plant response rating, Bromegrass, Downy",[4]; [19],90
same,"Bromegrass, Downy plant response rating","[4]; Preemergence, scale 0 to 100",0
same,"Plant response rating, Nightshade, E. B.",[5]; [20],0
same,"Plant response rating, Nightshade, E. B.","[5]; 31 g ai/ha, scale 0 to 100 (0 no effect, 100 complete control)",0
same,"Plant response rating, Nightshade, E. B.","[5]; 62 g ai/ha, scale 0 to 100",0
same,"Nightshade, E. B. plant response rating",[5]; scale 0 to 100,0
same,"Plant response rating, Foxtail, Giant",[6]; [17],98
same,"Plant response rating, Foxtail, Giant",[6]; [18],100
same,"Plant response rating, Foxtail, Giant",[6]; [19],100
same,"Foxtail, Giant plant response rating","[6]; Preemergence, scale 0 to 100",0
same,"Plant response rating, Foxtail, Green",[7]; [17],80
same,"Plant response rating, Foxtail, Green",[7]; [18],100
same,"Plant response rating, Foxtail, Green",[7]; [19],100
same,"Foxtail, Green plant response rating","[7]; Preemergence, scale 0 to 100",5
same,"Plant response rating, Johnsongrass",[8]; [17],75
same,"Plant response rating, Johnsongrass",[8]; [18],85
same,"Plant response rating, Johnsongrass",[8]; [19],95
same,Johnsongrass plant response rating,"[8]; Preemergence, scale 0 to 100",0
same,"Plant response rating, Morningglory",[9]; [17],0
same,"Plant response rating, Morningglory",[9]; [22],0
same,"Plant response rating, Morningglory",[9]; [19],0
same,Morningglory plant response rating,"[9]; Preemergence, scale 0 to 100",0
same,"Plant response rating, Pigweed",[10]; [22],0
same,"Plant response rating, Pigweed",[10]; [19],0
same,Pigweed plant response rating,"[10]; Preemergence, scale 0 to 100",0
same,"Plant response rating, Velvetleaf",[11]; [17],0
same,"Plant response rating, Velvetleaf",[11]; [22],0
same,"Plant response rating, Velvetleaf","[11]; Preemergence, 62 g ai/ha, 0 to 100 scale, 0 no effect, 100 complete control",0
same,Velvetleaf plant response rating,"[11]; Preemergence, scale 0 to 100",0
same,"Plant response rating, Oat, Wild",wild oat (Avena fatua); [17],0
same,"Plant response rating, Oat, Wild",wild oat (Avena fatua); [22],0
same,"Plant response rating, Oat, Wild",wild oat (Avena fatua); [19],70
same,"Oat, Wild plant response rating","wild oat (Avena fatua); Preemergence, scale 0 to 100",0
same,"Plant response rating, Cupgrass, Woolly",[12]; [17],100
same,"Plant response rating, Cupgrass, Woolly",[12]; [18],100
same,"Plant response rating, Cupgrass, Woolly",[12]; [19],100
same,"Cupgrass, Woolly plant response rating","[12]; Preemergence, scale 0 to 100",98
same,"Plant response rating, Nutsedge, Yellow",[13]; [17],0
same,"Plant response rating, Nutsedge, Yellow",[13]; [22],0
same,"Plant response rating, Nutsedge, Yellow",[13]; [19],0
same,"Nutsedge, Yellow plant response rating","[13]; Preemergence, scale 0 to 100",0
